Measurements taken from patent US12662482B2 (The Johns Hopkins University, priority 2020, dated 2026).
Where a name gives a salt, the structure may show the parent alone.

Test system: RPA194
Assay: RPA194 destruction / Pol I inhibition, high-content imaging in A375 cells
Assay type: cell-based
Conditions: A375 cells treated for 4 hours, anti-RPA194 immunofluorescence; pIC50 >= 5.02 deemed a Pol I inhibitor
Protocol: Cell culture: A375 cells (CRL-1619, ATCC) were grown in DMEM (GJBCO) supplemented with […] (GTBCO) in 5% CO2 at 37° C.
Cell treatment and Imaging: 18 hours post-seeding in cell carrier black 384-well plates (PerkinElmer) at 15 000 cells/well, A375 cells were treated for 4 hours with a positive control or test compounds (9 serial semi-log dilutions, top concentration 10 μM). Upon treatment A375 cells were (i) fixed for 15 min at RT with 4% of paraformaldehyde, (ii) permeabilized for 20 min at RT with 0.1-0.5% of NP-40, (iii) incubated with primary antibodies at 4° C.: anti-RPA194 (1:1000-1:1250 dilution, sc-48385, Santa Cruz Biotechnology) and anti-gH2Ax (1:5000 dilution, 81299, Abcam or 1:4000, JBW302, Millipore) (iv) incubated for 1 h at RT with Hoechst (1:5000 dilution, H3570, ThermoFisher) and secondary antibodies: anti-mouse-AlexaFluor488 (1:2000 dilution, A11001, ThermoFisher) and anti-rabbit-AlexaFluor647 (1:2000 dilution, A21443, ThermoFisher) or goat anti-mouse AlexaFluor-594 (1:1000 dilution). Images were acquired on an Operetta CLS High-Content Analysis System (PerkinElmer) (40× objective; 9 fields/well) and processed using the Columbus Image Analysis System (PerkinElmer) or by using Molecular Devices ImageXpress Micro XLS High Content Imager and MetaXpress high-content acquisition and analysis software.
In the table below, (+) is associated with a pIC50 5.02 to 5.8; (++) with pIC50 5.8 to 6.3; and (+++) with a pIC50 above 6.3.

CC1(C)CCN(CCNC(=O)c2cccn3c(=O)c4ccc5ccccc5c4nc23)C1 [Example 21, N-(2-(3,3-dimethylpyrrolidin-1-yl)ethyl)-7-oxo-7H-benzo[h]pyrido[2,1-b]quinazoline-12-carboxamide hydrochloride]
Activity Range (pIC50): ++ ((++) with pIC50 5.8 to 6.3)

NCCNC(=O)c1cccn2c(=O)c3ccc4ccccc4c3nc12 [Example 17, N-(2-aminoethyl)-7-oxo-7H-benzo[h]pyrido[2,1-b]quinazoline-12-carboxamide hydrochloride]
Activity Range (pIC50): + ((+) is associated with a pIC50 5.02 to 5.8)

O=C(NCCO)c1cccn2c(=O)c3ccc4ccccc4c3nc12 [Example 32, N-(2-hydroxyethyl)-7-oxo-7H-benzo[h]pyrido[2,1-b]quinazoline-12-carboxamide; hydrochloride]
Activity Range (pIC50): + ((+) is associated with a pIC50 5.02 to 5.8)

C[C@@H]1CCCN1CCNC(=O)c1cccn2c(=O)c3ccc4ccccc4c3nc12 [Example 35, (R)-N-(2-(2-methylpyrrolidin-1-yl)ethyl)-7-oxo-7H-benzo[h]pyrido[2,1-b]quinazoline-12-carboxamide; hydrochloride 1]
Activity Range (pIC50): + ((+) is associated with a pIC50 5.02 to 5.8)

O=C(NCCN1CC[C@@H](F)C1)c1cccn2c(=O)c3ccc4ccccc4c3nc12 [Example 25, (R)-N-(2-(3-fluoropyrrolidin-1-yl)ethyl)-7-oxo-7H-benzo[h]pyrido[2,1-b]quinazoline-12-carboxamide hydrochloride]
Activity Range (pIC50): + ((+) is associated with a pIC50 5.02 to 5.8)

O=C(NCCN1CCC(O)CC1)c1cccn2c(=O)c3ccc4ccccc4c3nc12 [Example 5, N-(2-(4-hydroxypiperidin-1-yl)ethyl)-7-oxo-7H-benzo[h]pyrido[2,1-b]quinazoline-12-carboxamide hydrochloride]
Activity Range (pIC50): +++ ((+++) with a pIC50 above 6.3)

CN1CC(NC(=O)c2cccn3c(=O)c4ccc5ccccc5c4nc23)C1 [Example 9, N-(1-methylazetidin-3-yl)-7-oxo-7H-benzo[h]pyrido[2,1-b]quinazoline-12-carboxamide hydrochloride]
Activity Range (pIC50): ++ ((++) with pIC50 5.8 to 6.3)

O=C(NCCCN1CC2CCC(C1)O2)c1cccn2c(=O)c3ccc4ccccc4c3nc12 [Example 34, N-(3-(8-oxa-3-azabicyclo[3.2.1]octan-3-yl)propyl)-7-oxo-7H-benzo[h]pyrido[2,1-b]quinazoline-12-carboxamide; hydrochloride]
Activity Range (pIC50): + ((+) is associated with a pIC50 5.02 to 5.8)

O=C(NCCN1C[C@@H](O)[C@H](O)C1)c1cccn2c(=O)c3ccc4ccccc4c3nc12 [Example 7, N-(2-((3R,4R)-3,4-dihydroxy-pyrrolidin-1-yl)ethyl)-7-oxo-7H-benzo[h]pyrido[2,1-b]quinazoline-12-carboxamide hydrochloride]
Activity Range (pIC50): +++ ((+++) with a pIC50 above 6.3)

O=C(NC1CNC1)c1cccn2c(=O)c3ccc4ccccc4c3nc12 [Example 8, N-(azetidin-3-yl)-7-oxo-7H-benzo[h]pyrido[2,1-b]quinazoline-12-carboxamide dihydrochloride]
Activity Range (pIC50): + ((+) is associated with a pIC50 5.02 to 5.8)

CO[C@H]1CCN(CCNC(=O)c2cccn3c(=O)c4ccc5ccccc5c4nc23)C1 [Example 23, (S)-N-(2-(3-methoxypyrrolidin-1-yl)ethyl)-7-oxo-7H-benzo[h]pyrido[2,1-b]quinazoline-12-carboxamide hydrochloride]
Activity Range (pIC50): +++ ((+++) with a pIC50 above 6.3)

C[C@@H](CN(C)C)NC(=O)c1cccn2c(=O)c3ccc4ccccc4c3nc12 [Example 13, (S)-N-(1-(dimethylamino)propan-2-yl)-7-oxo-7H-benzo[h]pyrido[2,1-b]quinazoline-12-carboxamide; hydrochloride]
Activity Range (pIC50): ++ ((++) with pIC50 5.8 to 6.3)

O=C(NCCCN1CC[C@H](O)C1)c1cccn2c(=O)c3ccc4ccccc4c3nc12 [Example 39, (S)-N-(3-(3-hydroxypyrrolidin-1-yl)propyl)-7-oxo-7H-benzo[h]pyrido[2,1-b]quinazoline-12-carboxamide hydrochloride]
Activity Range (pIC50): + ((+) is associated with a pIC50 5.02 to 5.8)

O=C1CCN(CCNC(=O)c2cccn3c(=O)c4ccc5ccccc5c4nc23)CC1 [Example 22, 7-oxo-N-(2-(4-oxopiperidin-1-yl)ethyl)-7H-benzo[h]pyrido[2,1-b]quinazoline-12-carboxamide hydrochloride]
Activity Range (pIC50): ++ ((++) with pIC50 5.8 to 6.3)

C[C@H]1CCCN1CCNC(=O)c1cccn2c(=O)c3ccc4ccccc4c3nc12 [Example 36, (S)-N-(2-(2-methylpyrrolidin-1-yl)ethyl)-7-oxo-7H-benzo[h]pyrido[2,1-b]quinazoline-12-yl)ethan-1-carboxamide; hydrochloride]
Activity Range (pIC50): + ((+) is associated with a pIC50 5.02 to 5.8)

O=C(NCCN1CC[C@H](F)C1)c1cccn2c(=O)c3ccc4ccccc4c3nc12 [Example 33, (S)-N-(2-(3-fluoropyrrolidin-1-yl)ethyl)-7-oxo-7H-benzo[h]pyrido[2,1-b]quinazoline-12-carboxamide; hydrochloride]
Activity Range (pIC50): + ((+) is associated with a pIC50 5.02 to 5.8)

C[C@@H](CN1C[C@H](O)[C@@H](O)C1)NC(=O)c1cccn2c(=O)c3ccc4ccccc4c3nc12 [Example 26, N-((S)-1-((3S,4S)-3,4-dihydroxy-pyrrolidin-1-yl)propan-2-yl)-7-oxo-7H-benzo[h]pyrido[2,1-b]quinazoline-12-carboxamide hydrochloride]
Activity Range (pIC50): ++ ((++) with pIC50 5.8 to 6.3)

C[C@H](CNC(=O)c1cccn2c(=O)c3ccc4ccccc4c3nc12)N(C)C [Example 11, (R)-N-(2-(dimethylamino)propyl)-7-oxo-7H-benzo[h]pyrido[2,1-b]quinazoline-12-carboxamide; hydrochloride]
Activity Range (pIC50): +++ ((+++) with a pIC50 above 6.3)

CN(C)CCNC(=O)c1cccn2c(=O)c3ccc4ccccc4c3nc12 [Example 1, hydrochloride]
Activity Range (pIC50): +++ ((+++) with a pIC50 above 6.3)

C[C@H](CN(C)C)NC(=O)c1cccn2c(=O)c3ccc4ccccc4c3nc12 [Example 14, (R)-N-(1-(dimethylamino)propan-2-yl)-7-oxo-7H-benzo[h]pyrido[2,1-b]quinazoline-12-carboxamide; hydrochloride]
Activity Range (pIC50): +++ ((+++) with a pIC50 above 6.3)

C[C@H](CN1CC[C@H](O)C1)NC(=O)c1cccn2c(=O)c3ccc4ccccc4c3nc12 [Example 30, N-((R)-1-((S)-3-hydroxypyrrolidin-1-yl)propan-2-yl)-7-oxo-7H-benzo[h]pyrido[2,1-b]quinazoline-12-carboxamide hydrochloride]
Activity Range (pIC50): +++ ((+++) with a pIC50 above 6.3)

CO[C@@H]1CCN(CCNC(=O)c2cccn3c(=O)c4ccc5ccccc5c4nc23)C1 [Example 24, (R)-N-(2-(3-methoxypyrrolidin-1-yl)ethyl)-7-oxo-7H-benzo[h]pyrido[2,1-b]quinazoline-12-carboxamide hydrochloride]
Activity Range (pIC50): ++ ((++) with pIC50 5.8 to 6.3)

CN(C)C(C)(C)CNC(=O)c1cccn2c(=O)c3ccc4ccccc4c3nc12 [Example 6, N-(2-(dimethylamino)-2-methylpropyl)-7-oxo-7H-benzo[h]pyrido[2,1-b]quinazoline-12-carboxamide hydrochloride]
Activity Range (pIC50): ++ ((++) with pIC50 5.8 to 6.3)

O=C(NCCN1CCCCC1)c1cccn2c(=O)c3ccc4ccccc4c3nc12 [Example 15, 7-oxo-N-(2-(piperidin-1-yl)ethyl)-7H-benzo[h]pyrido[2,1-b]quinazoline-12-carboxamide; hydrochloride]
Activity Range (pIC50): ++ ((++) with pIC50 5.8 to 6.3)

CCN(CC)CCNC(=O)c1cccn2c(=O)c3ccc4ccccc4c3nc12 [Example 12, N-(2-(diethylamino)ethyl)-7-oxo-7H-benzo[h]pyrido[2,1-b]quinazoline-12-carboxamide; hydrochloride]
Activity Range (pIC50): ++ ((++) with pIC50 5.8 to 6.3)

CNC(C)CNC(=O)c1cccn2c(=O)c3ccc4ccccc4c3nc12 (single isomer, unassigned) [Example 19, (S or R)-N-(2-(methylamino)propyl)-7-oxo-7H-benzo[h]pyrido[2,1-b]quinazoline-12-carboxamide; hydrochloride]
Activity Range (pIC50): ++ ((++) with pIC50 5.8 to 6.3)

O=C(NCCCN1CC[C@@H](O)C1)c1cccn2c(=O)c3ccc4ccccc4c3nc12 [Example 40, (R)-N-(3-(3-hydroxypyrrolidin-1-yl)propyl)-7-oxo-7H-benzo[h]pyrido[2,1-b]quinazoline-12-carboxamide; hydrochloride]
Activity Range (pIC50): + ((+) is associated with a pIC50 5.02 to 5.8)
